The values below come from patent EP0421819A1, “Therapeutic nucleosides” (THE WELLCOME FOUNDATION LIMITED, priority 1989, dated 1991).

Type in all cases: cell-based
In assay [1] the test system is Hepatitis B Virus (HBV). Kind of assay: Antiviral activity against HBV in the HBV producer cell line HepG2 2.2.15 (Dane particle DNA and intracellular replicative intermediates). The settings on record: for anti-HBV activity: general statement in the description, no concentration given. Here is the method:
The human HBV producer cell line of HepG2, 2.2 15, described and characterised by Sells et al., PNAS 84:1005, 1987 and J. Virol. […] This cell line was utilised in vitro to identify compounds with anti-HBV activity.
To test compounds for antiviral activity, monolayer cultures were treated with compound, 50-200 µM, for ten days. Supernatant media containing extracellular virion DNA (Dane particles), were harvested on days three, six and ten, treated with proteinase K(1 mg/mL) and sodium dodecyl sulfate (1%), and incubated at 50 °C for one hour. DNA was extracted with equal volumes of phenol followed by chloroform and then precipitated by ammonium acetate and propanol. The DNA precipitate was dissolved and collected on nitrocellulose using the procedure of Schieicher and Schuell (S & S, 10 Optical Ave., Keene, NH 03431, Publication #700, 1987), and treated as described by Southern, J. Mol. Biol. 98:503, 1975. Cells were harvested, and the intracellular DNA was obtained after cell lysis with guanidine isothiocyanate. The intracellular DNA was handled in the same manner as the extracellular DNA. After precipitation by ammonium acetate and propanol, the intracellular DNA precipitate was dissolved, cut by restriction endonuclease, Hind III, applied to agarose gel and then treated as described by Southern to determine the quantity of replicative intermediate forms. The antiviral effect of the drug was determined by measuring at least a 100-fold reduction of the amount of Dane particles extruded into the culture and a similar decrease in the intracellular replicative intermediates.

Assay [2] deals with HIV. Kind of assay: Activity against HIV infections (general statement, no method given at that place). The settings on record: general statement in the description.
Assay [3] has as its system HIV-2. Kind of assay: Anti-HIV activity by the method of Averett (J.Virol.Methods 23, 263-276). The settings on record: against HIV-2; n=6; read-out: average IC₅₀. Here is the method:
(§1) Anti-HIV activity was determined by the method of Averett, D.R., J.Virol.Methods, 23 263-276 (1989).

Assay [4] deals with HIV-1. Described as above. The following applies: against HIV-1; n=7; read-out: average IC₅₀. As for the experimental part:
as §1

Molecules are shown by their SMILES. “Also recorded” adds a separate entry of the source.

For the molecule `CCCOc1nc(N)nc2c1ncn2[C@H]1CC[C@@H](CO)O1` [Compound 9, 2-Amino-6-n-propoxypurine-9-β-D-2′,3′-dideoxyribofuranoside], the anti-HBV activity result in assay [1] is given as “surprisingly high”.

As to `Nc1nc(NC2CC2)c2ncn([C@H]3CC[C@@H](CO)O3)c2n1` [Compound 34, 2-Amino-6-cyclopropylaminopurine-9-β-D-2,′3′-dideoxyribofuranoside], in assay [1], the anti-HBV activity entry is on record as “surprisingly high”.

Consider `Nc1nc(NCC2CC2)c2ncn([C@H]3CC[C@@H](CO)O3)c2n1` [Example 42, 2-Amino-6-(cyclopropylmethylamino)purine-9-β-D-2′,3′-dideoxy ribofuranoside], for which, in assay [2], the “activity against HIV infections” value is on record as “exceptionally potent activity”. Besides, the IC50 worked out at 13.3 µM in assay [3] and 17.7 µM in assay [4]. The “inhibition of HBV” value in assay [1] (at 100 µM, monolayer cultures treated for ten days) is reported as “strong inhibition”. Further, in assay [1] (listed as Compound 41), the anti-HBV activity entry is reported as “surprisingly high; also recorded: exceptionally potent activity”.
